Tests used:
Format in all cases: cell-based
NFκB = NFκB activity assay (commercial assay from Cell Culture Service GmbH), NFκB activated by TNF-alpha; conditions: NFκB activated by adding TNF-alpha; FIG. 1; very low concentrations
Description: The nuclear factor kappa B (NFκB) is a master regulator of inflammation. The expression of many pro-inflammatory mediators (e.g. cytokines and chemokines) is controlled by NFκB. The inhibition of the activation of NFκB is therefore an important mechanism for minimizing inflammation processes. To measure the NFκB activity, a commercial assay from Cell Culture Service GmbH, Hamburg, was used. In this test, NFκB is activated by adding the pro-inflammatory mediator TNF-alpha. The addition of the alkylamidothiazoles according to the invention prevents the TNF-alpha effect in a dose-dependent manner.

blood leukocytes = assay: release of interleukin 1β from blood leukocytes following stimulation by LPS; conditions: FIG. 3
Experimental: (§1) In further experiments it was investigated whether the inhibition of the NFκB activation also actually reduces the subsequent secretion of pro-inflammatory mediators. By way of example, the results of two experiments are documented in the figures. By incubation of human dermal fibroblasts with lipopolysaccharides (LPS), the formation of the pro-inflammatory prostaglandin E2 was induced in the cells, and a specific ELISA was used to determine the concentration in the cell culture supernatant, following incubation for 24 hours with LPS and increasing concentrations of the substances according to the invention. […] In the next experiment, the release of interleukin 1β (IL-1β) from blood leukocytes following stimulation by LPS and simultaneous incubation (for 24 hours) with the substances according to the invention was measured. […] The anti-inflammatory activity level of the alkylamidothiazoles is thus that of recognized pharmacological standards, although higher concentrations of the substances according to the invention do have to be used.

human dermal fibroblasts = assay: LPS-induced prostaglandin E2 formation in human dermal fibroblasts, ELISA of cell culture supernatant; conditions: incubation for 24 hours with LPS and increasing concentrations, FIG. 2, compared with diclofenac
Experimental: as §1

SMILES: CC(C)C(=O)Nc1nc(-c2ccc(O)cc2O)cs1 [N-(4-(2,4-dihydroxyphenyl)thiazol-2-yl)isobutyramide]
- inhibition of the TNF-alpha-induced activation of NFκB (NFκB): prevent the TNF-alpha-induced activation of NFκB
- release of interleukin 1β (IL-1β) (blood leukocytes; LPS stimulation and simultaneous incubation for 24 hours): very good anti-inflammatory effectiveness
- release of interleukin 1β (IL-1β), effectiveness relative to dexamethasone (blood leukocytes; concentration of 16.67 μM, LPS, 24 hours): an effectiveness as for 500 ng of dexamethasone
- release of PGE2 (human dermal fibroblasts): very significantly reduces the release of PGE2 to a level which is comparable to the pharmacological standard diclofenac

— patent US10245252B2, “Use of alkylamidothiazoles in cosmetic or dermatological preparations for the prophylaxis or treatment of sensitive skin” (BEIERSDORF AG, priority 2013, dated 2019)
